According to patent publication US10399974B2, “N2-phenyl-pyrido[3,4-D]pyrimidine-2, 8-diamine derivatives and their use as Mps1 inhibitors” (Cancer Research Technology Limited, priority 2014, dated 2019):
Where two headings read alike, the source gives them in different places.

Target: full length MPS1 (Homo sapiens (Human), UniProt P33981)
Assay: Measurement of Inhibition of MPS1 Kinase
Assay type: biochemical
Procedure: Measurement of Inhibition of MPS1 Kinase
(5 μM), ATP (10 μM), either DMSO (1% v/v) or the test compound (in the range 0.25 nM-100 μM in 1% DMSO) and assay buffer (50 mM HEPES (pH 7.0), 0.02% NaN3, 0.01% BSA, 0.1 mM Orthovandate, […], 1 μM DTT, Roche protease inhibitor). The reaction was carried out for 60 min at room temperature and stopped by the addition of buffer (10 μl) containing 20 mM EDTA, 0.05% (v/v) Brij-35, in 0.1M HEPES-buffered saline (Free acid, Sigma, UK). The plate was read on a Caliper EZ reader II (Caliper Life Sciences).
The reader provides a Software package (‘Reviewer’) which converts the peak heights into % conversion by measuring both product and substrate peak and also allows selection of control well which represent 0% and 100% inhibition, respectively. The % inhibition of the compounds is calculated relative to the means of selected control wells. IC50s are determined by testing the compounds at a range of concentrations from 0.25 nM-100 μM. The % inhibitions at each concentration are then fitted to a 4 parameter logistic fit: y=(a+((b−a)/(1+((c/x^d)))) where a=asym min, b=asym max, c=IC50 and d=hill coefficient

[1] = full length MPS1 12.5 nM or 3 nM, H236 peptide 5 μM, ATP 10 μM, 60 min at room temperature, Caliper EZ reader II, read-out: MPS1 IC50

full length MPS1, sequence (P33981 whole entry): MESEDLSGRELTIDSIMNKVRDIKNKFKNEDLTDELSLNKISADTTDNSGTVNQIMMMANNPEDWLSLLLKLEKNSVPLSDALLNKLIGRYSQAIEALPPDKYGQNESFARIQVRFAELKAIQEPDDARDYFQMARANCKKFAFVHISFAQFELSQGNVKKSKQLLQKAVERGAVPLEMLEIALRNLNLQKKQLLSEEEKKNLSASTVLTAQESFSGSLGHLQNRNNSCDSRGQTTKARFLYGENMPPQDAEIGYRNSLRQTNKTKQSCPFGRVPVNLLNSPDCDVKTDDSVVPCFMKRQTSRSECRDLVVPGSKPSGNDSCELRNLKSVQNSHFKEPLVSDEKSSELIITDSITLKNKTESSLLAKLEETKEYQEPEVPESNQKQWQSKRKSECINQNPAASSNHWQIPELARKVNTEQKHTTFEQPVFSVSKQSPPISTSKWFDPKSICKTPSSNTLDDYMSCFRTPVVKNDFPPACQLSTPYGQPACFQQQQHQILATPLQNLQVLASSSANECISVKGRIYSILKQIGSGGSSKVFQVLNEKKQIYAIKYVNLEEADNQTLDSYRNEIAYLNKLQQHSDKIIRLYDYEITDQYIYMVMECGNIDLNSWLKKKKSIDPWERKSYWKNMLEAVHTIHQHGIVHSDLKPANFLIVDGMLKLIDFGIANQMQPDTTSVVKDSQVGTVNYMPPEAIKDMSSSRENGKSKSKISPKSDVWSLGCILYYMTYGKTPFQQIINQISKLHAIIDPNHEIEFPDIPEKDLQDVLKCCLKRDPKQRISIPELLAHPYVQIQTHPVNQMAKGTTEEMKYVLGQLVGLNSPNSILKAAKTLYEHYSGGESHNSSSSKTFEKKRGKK

| SMILES | IC50 [1] [nM] | IC50 [nM] |
| --- | --- | --- |
| COc1cc(-c2nccn2C)ccc1Nc1ncc2cc(C)nc(NCC(C)(C)C)c2n1 [Example 12, N2-(2-methoxy-4-(1-methyl-1H-imidazol-2-yl)phenyl)-6-methyl-N8-neopentylpyrido[3,4-d]pyrimidine-2,8-diamine] | 4 |  |
| CCOc1cc(-c2nncn2C)ccc1Nc1ncc2cc(C)nc(N[C@H](C)C(C)(C)C)c2n1 [Example 53, (R)-N8-(3,3-dimethylbutan-2-yl)-N2-(2-ethoxy-4-(4-methyl-4H-1,2,4-triazol-3-yl)phenyl)-6-methylpyrido[3,4-d]pyrimidine-2,8-diamine] | 5 |  |
| CCOc1cc(-c2nncn2C)ccc1Nc1ncc2cc(C)nc(N3CCCC3)c2n1 [Example 56, N-(2-ethoxy-4-(4-methyl-4H-1,2,4-triazol-3-yl)phenyl)-6-methyl-8-(pyrrolidin-1-yl)pyrido[3,4-d]pyrimidin-2-amine] | 6 |  |
| CCOc1cc(-c2nncn2CC)ccc1Nc1ncc2cc(C)nc(N3CC4(CCOCC4)C3)c2n1 [Example 24, N-(2-ethoxy-4-(4-ethyl-4H-1,2,4-triazol-3-yl)phenyl)-6-methyl-8-(7-oxa-2-azaspiro[3.5]nonan-2-yl)pyrido[3,4-d]pyrimidin-2-amine] | 2 |  |
| CCOc1cc(-c2nncn2C)ccc1Nc1ncc2cc(C)nc(N3CC(N(C)C)C3)c2n1 [Example 51, 8-(3-(dimethylamino)azetidin-1-yl)-N-(2-ethoxy-4-(4-methyl-4H-1,2,4-triazol-3-yl)phenyl)-6-methylpyrido[3,4-d]pyrimidin-2-amine] | 6 |  |
| COc1cc(-c2nnc(C)n2C)ccc1Nc1ncc2cc(C)nc(NCC(C)(C)C)c2n1 [Example 21, N2-(4-(4,5-dimethyl-4H-1,2,4-triazol-3-yl)-2-methoxyphenyl)-6-methyl-N8-neopentylpyrido[3,4-d]pyrimidine-2,8-diamine] | 1 |  |
| CCOc1cc(-c2nncn2C)ccc1Nc1ncc2cc(C)nc(N3CCC4(CCOC4)C3)c2n1 (centres unmarked) [Example 27, N-(2-ethoxy-4-(4-methyl-4H-1,2,4-triazol-3-yl)phenyl)-6-methyl-8-(2-oxa-7-azaspiro[4.4]nonan-7-yl)pyrido[3,4-d]pyrimidin-2-amine] | 4 |  |
| CCOc1cc(-c2nncn2C)ccc1Nc1ncc2cc(C)nc(N3CCC(C)(O)C3)c2n1 (centres unmarked) [Example 37, 1-(2-((2-ethoxy-4-(4-methyl-4H-1,2,4-triazol-3-yl)phenyl)amino)-6-methylpyrido[3,4-d]pyrimidin-8-yl)-3-methylpyrrolidin-3-ol] | 3 |  |
| CCOc1cc(-c2nncn2CC)ccc1Nc1ncc2cc(C)nc(N3CC(C)(C)C3)c2n1 [Example 25, 8-(3,3-dimethylazetidin-1-yl)-N-(2-ethoxy-4-(4-ethyl-4H-1,2,4-triazol-3-yl)phenyl)-6-methylpyrido[3,4-d]pyrimidin-2-amine] | 6 |  |
| CCOc1cc(-c2nncn2C)ccc1Nc1ncc2cc(C)nc(NCC3COC3)c2n1 [Example 57, N2-(2-ethoxy-4-(4-methyl-4H-1,2,4-triazol-3-yl)phenyl)-6-methyl-N8-(oxetan-3-ylmethyl)pyrido[3,4-d]pyrimidine-2,8-diamine] | 3 |  |
| CCOc1cc(-c2nncn2C)ccc1Nc1ncc2cc(C)nc(N3CC4(CCC4)C3)c2n1 [Example 55, N-(2-ethoxy-4-(4-methyl-4H-1,2,4-triazol-3-yl)phenyl)-6-methyl-8-(2-azaspiro[3.3]heptan-2-yl)pyrido[3,4-d]pyrimidin-2-amine] | 4 |  |
| CCOc1cc(-c2nnc(C)n2C)ccc1Nc1ncc2cc(C)nc(N3CC4(CCOCC4)C3)c2n1 [Example 23, N-(4-(4,5-dimethyl-4H-1,2,4-triazol-3-yl)-2-ethoxyphenyl)-6-methyl-8-(7-oxa-2-azaspiro[3.5]nonan-2-yl)pyrido[3,4-d]pyrimidin-2-amine] | 4 |  |
| COc1cc(-c2oc(C)nc2C)ccc1Nc1ncc2cc(C)nc(NCC(C)(C)C)c2n1 [Example 17, N2-(4-(2,4-dimethyloxazol-5-yl)-2-methoxyphenyl)-6-methyl-N8-neopentylpyrido[3,4-d]pyrimidine-2,8-diamine] | 43 |  |
| COc1cc(-c2cnnn2C)ccc1Nc1ncc2cc(C)nc(NCC(C)(C)C)c2n1 [Example 1, N2-(2-methoxy-4-(1-methyl-1H-1,2,3-triazol-5-yl)phenyl)-6-methyl-N8-neopentylpyrido[3,4-d]pyrimidine-2,8-diamine] | 0.5 |  |
| CCOc1cc(-c2nncn2C)ccc1Nc1ncc2cc(C)nc(NCC3(O)CCC3)c2n1 [Example 8, 1-(((2-((2-ethoxy-4-(4-methyl-4H-1,2,4-triazol-3-yl)phenyl)amino)-6-methylpyrido[3,4-d]pyrimidin-8-yl)amino)methyl)cyclobutanol] | 3 |  |
| CCOc1cc(-c2nncn2C)ccc1Nc1ncc2cc(C)nc(NC3CCOCC3)c2n1 [Example 6, N2-(2-ethoxy-4-(4-methyl-4H-1,2,4-triazol-3-yl)phenyl)-6-methyl-N8-(tetrahydro-2H-pyran-4-yl)pyrido[3,4-d]pyrimidine-2,8-diamine] | 5 |  |
| CCOc1cc(-c2nncn2C)ccc1Nc1ncc2cc(C)nc(N3CC(C)(C)C3)c2n1 [Example 29, 8-(3,3-dimethylazetidin-1-yl)-N-(2-ethoxy-4-(4-methyl-4H-1,2,4-triazol-3-yl)phenyl)-6-methylpyrido[3,4-d]pyrimidin-2-amine] |  | 2 |
| CCOc1cc(-c2nncn2C)ccc1Nc1ncc2cc(C)nc(N3CC4(CCOCC4)C3)c2n1 [Example 4, N-(2-ethoxy-4-(4-methyl-4H-1,2,4-triazol-3-yl)phenyl)-6-methyl-8-(7-oxa-2-azaspiro[3.5]nonan-2-yl)pyrido[3,4-d]pyrimidin-2-amine] | 2 |  |
| CCOc1cc(-c2nncn2C)ccc1Nc1ncc2cc(C)nc(N3CCC(C#N)CC3)c2n1 [Example 5, 1-(2-((2-ethoxy-4-(4-methyl-4H-1,2,4-triazol-3-yl)phenyl)amino)-6-methylpyrido[3,4-d]pyrimidin-8-yl)piperidine-4-carbonitrile] | 3 |  |

Continued by falling IC50 [1], values first:

| IC50 [1] [nM] | IC50 [nM] | SMILES |
| --- | --- | --- |
| 36 |  | COc1cc(-c2ccn(C)n2)ccc1Nc1ncc2cc(C)nc(NCC(C)(C)C)c2n1 [Example 11, N2-(2-methoxy-4-(1-methyl-1H-pyrazol-3-yl)phenyl)-6-methyl-N8-neopentylpyrido[3,4-d]pyrimidine-2,8-diamine] |
| 16 |  | Cc1cc2cnc(Nc3ccc(-c4nncn4C)cc3OC(F)F)nc2c(N2CC(C)(C)C2)n1 [Example 62, N-(2-(difluoromethoxy)-4-(4-methyl-4H-1,2,4-triazol-3-yl)phenyl)-8-(3,3-dimethylazetidin-1-yl)-6-methylpyrido[3,4-d]pyrimidin-2-amine] |
| 6 |  | CCOc1cc(-c2nncn2CC)ccc1Nc1ncc2cc(C)nc(NCC(C)(C)C)c2n1 [Example 26, N2-(2-ethoxy-4-(4-ethyl-4H-1,2,4-triazol-3-yl)phenyl)-6-methyl-N8-neopentylpyrido[3,4-d]pyrimidine-2,8-diamine] |
| 6 |  | CCOc1cc(-c2nncn2C)ccc1Nc1ncc2cc(C)nc(N3CCCC(OC)C3)c2n1 (racemic) [Example 47, Racemic-N-(2-ethoxy-4-(4-methyl-4H-1,2,4-triazol-3-yl)phenyl)-8-(3-methoxypiperidin-1-yl)-6-methylpyrido[3,4-d]pyrimidin-2-amine] |
| 4 |  | COc1cc(-c2ncc(C)n2C)ccc1Nc1ncc2cc(C)nc(NCC(C)(C)C)c2n1 [Example 18, N2-(4-(1,5-dimethyl-1H-imidazol-2-yl)-2-methoxyphenyl)-6-methyl-N8-neopentylpyrido[3,4-d]pyrimidine-2,8-diamine] |
| 3 |  | COc1cc(-c2cnc(C)n2C)ccc1Nc1ncc2cc(C)nc(N3CCC(C#N)CC3)c2n1 [Example 34, 1-(2-((4-(1,2-dimethyl-1H-imidazol-5-yl)-2-methoxyphenyl)amino)-6-methylpyrido[3,4-d]pyrimidin-8-yl)piperidine-4-carbonitrile] |
| 3 |  | CCOc1cc(-c2nncn2C)ccc1Nc1ncc2cc(C)nc(N3CCC(OC)CC3)c2n1 [Example 46, N-(2-ethoxy-4-(4-methyl-4H-1,2,4-triazol-3-yl)phenyl)-8-(4-methoxypiperidin-1-yl)-6-methylpyrido[3,4-d]pyrimidin-2-amine] |
| 3 |  | CCOc1cc(-c2nncn2C)ccc1Nc1ncc2cc(C)nc(N3CCC(OC)C3)c2n1 (centres unmarked) [Example 39, N-(2-ethoxy-4-(4-methyl-4H-1,2,4-triazol-3-yl)phenyl)-8-(3-methoxypyrrolidin-1-yl)-6-methylpyrido[3,4-d]pyrimidin-2-amine] |
| 2 |  | CCOc1cc(-c2nncn2C)ccc1Nc1ncc2cc(C)nc(N3CC4(CCO4)C3)c2n1 [Example 36, N-(2-ethoxy-4-(4-methyl-4H-1,2,4-triazol-3-yl)phenyl)-6-methyl-8-(1-oxa-6-azaspiro[3.3]heptan-6-yl)pyrido[3,4-d]pyrimidin-2-amine] |
| 1 |  | Cc1cc2cnc(Nc3ccc(-c4nncn4C)cc3OC(F)F)nc2c(NCC(C)(C)C)n1 [Example 15, N2-(2-(difluoromethoxy)-4-(4-methyl-4H-1,2,4-triazol-3-yl)phenyl)-6-methyl-N8-neopentylpyrido[3,4-d]pyrimidine-2,8-diamine] |
